In patent US20110160399A1, “HISTONE MODIFICATION INHIBITOR SPECIFIC TO TARGET GENE” (NIHON UNIVERSITY, priority 2008, published 2011):

Tested on: LARP1 gene expression
Assay: Expression analysis of LARP1 gene by quantitative PCR in HEK293 cells
Format: cell-based, human
Conditions: 150 nM, one week, compared to esterified SAHA+p16 PIP or SAHA+non-targeting PIP, FIG. 11
Description: HEK293 cells were used to analyze LARP1 gene expression. HEK293 cells are a cell line established by transformation of human embryonic kidney cells with the adenovirus E1 gene. The LARP1 gene includes, in its gene region, a sequence similar to the sequence of the regulatory region in the p16 gene recognized by SAHA+p16 PIP, as described above. More specifically, the expression analysis was accomplished as follows. HEK293 cells were cultured in DMEM growth medium containing 10% fetal calf serum (FCS). During culture, the medium was replaced every two days by a culture solution containing the synthesized compound (SAHA+p16 PIP, esterified SAHA+p16 PIP or SAHA+non-targeting PIP) at a final concentration of 150 nM, and cell culture was continued for one week in the medium containing the above synthesized compound. After one week, the cells were lysed with 1 ml of TRIzol and then mixed with 200 μl of chloroform, followed by centrifugation at 12000×g at 4° C. for 10 minutes. Then, the supernatant was mixed with an equal volume of isopropanol and centrifuged at 12000×g at 4° C. for 10 minutes. Then, the pellet was washed with a 70% ethanol solution and centrifuged at 5000×g for 5 minutes to remove the supernatant. […] The RNA (1 μg) was used as a template to synthesize cDNA, followed by quantitative PCR. […]

Q: For CN(C)CCCNC(=O)CCNC(=O)c1cc(NC(=O)c2nc(NC(=O)c3nc(NC(=O)CCNC(=O)c4cc(NC(=O)c5nc(NC(=O)CCCNC(=O)c6cc(NC(=O)c7nc(NC(=O)CCNC(=O)c8cc(NC(=O)c9cc(NC(=O)c%10nc(NC(=O)CCNC(=O)CCNC(=O)c%11ccc(NC(=O)CCCCCCC(=O)NO)cc%11)cn%10C)cn9C)cn8C)cn7C)cn6C)cn5C)cn4C)cn3C)cn2C)cn1C [SAHA+p16 PIP, SAHA-ββImPyPyβImPyγImPyβImImPyβDp], which “expression of the LARP1 gene” value is on record?
A: increased expression
